In brackets after ≈: the same amount, converted by molar mass. Where two headings read alike, the source gives them in different places.
Assays:
[1] = target: FmlH (Escherichia coli, UniProt Q1RBS0); type: binding, Escherichia coli (UPEC, CFT073)
[2] = Rat pharmacokinetics; type: in vivo; conditions: for renal clearance to the urine: after IV and PO administration
[3] = test system: uropathogenic Escherichia coli (UPEC); conditions: cited from earlier work
[4] = Kinetic aqueous solubility; type: physicochemical; conditions: pH 7.4; for solubility kinetic: aqueous solution
[5] = Stability in simulated intestinal fluid; type: in vitro ADME
[6] = Mouse liver microsome stability; type: in vitro ADME
[7] = Mouse plasma stability; type: in vitro ADME
[8] = Stability in simulated gastric fluid; type: in vitro ADME
[9] = IC50, ELISA, FmlH binding to desialylated bovine submaxillary mucin, average of four or more replicates

## CC(=O)NC1[C@H](Oc2cccc(C(F)(F)F)c2-c2cccc(NS(C)(=O)=O)c2)O[C@H](CO)[C@H](O)[C@@H]1O (stereo in doubt) [Compound 90, N-((2S,3S,4R,5R)-4,5-Dihydroxy-6-(hydroxymethyl)-2-((3’-(meth-ylsulfonamido)-6-(trifluoromethyl)-[1,1’-biphenyl]-2-yl)oxy)-tetrahydro-2H-pyran-3-yl)acetamide]
[1]; ELISA IC50 ratio
  fold greater potency / improvement in activity relative to 1: ~20 fold
[1]; [9]
  IC50: 34 nM
[2]
  renal clearance to the urine: low renal clearance to the urine
[2]; plasma, iv, 3 mg/kg
  clearance: 57 mL/min/kg

## CC(=O)N[C@H]1[C@H](Oc2ccccc2-c2cccc(C(=O)O)c2)O[C@H](CO)[C@H](O)[C@@H]1O [Compound 1]
[3]; co-administration with 4Z269, a mannoside inhibitor of FimH
  effect on bacterial titers in bladder and kidney: further reduced bacterial titers in both the bladder and kidney
[3]; treatment model of chronic cystitis
  effect on bladder and kidney CFUs: significantly reduce bladder and kidney CFUs
[1]; [9]
  IC50: 640 nM

## CC(=O)N[C@H]1[C@H](Oc2cccc(F)c2-c2cccc(NS(C)(=O)=O)c2)O[C@H](CO)[C@H](O)[C@@H]1O [Compound 80, N-((2S,3R,4R,5R,6R)-2-((6-Fluoro-3’-(methylsulfonamido)-[1,1’- biphenyl]-2-yl)oxy)-4,5-dihydroxy-6-(hydroxymethyl)tetrahydro-2H-pyran-3-yl)acetamide]
[1]; [9]
  IC50: 88 nM
[4]
  solubility kinetic: 197 µM (≈ 95.4 µg/mL)

## CC(=O)N[C@H]1[C@H](Oc2cccc(C(=O)OCc3ccccc3)c2-c2cccc(NS(C)(=O)=O)c2)O[C@H](CO)[C@H](O)[C@@H]1O [Compound 81, Benzyl6-(((2S,3S,4R,5R)-3-Acetamido-4,5-dihydroxy-6-(hydroxymethyl)tetrahydro-2H-pyran-2-yl)oxy)-3’-(methylsulfona-mido)-[1,1’-biphenyl]-2-carboxylate]
[1]; [9]
  IC50: 89 nM

## CC(=O)N[C@H]1[C@H](Oc2cccc(C(=O)O)c2-c2cccc(NS(C)(=O)=O)c2)O[C@H](CO)[C@H](O)[C@@H]1O [Compound 82, 6-(((2S,3S,4R,5R)-3-Acetamido-4,5-dihydroxy-6 (hydroxymethyl)tetrahydro-2H-pyran-2-yl)oxy)-3 ‘-(methylsulfona-mido)-[1,1’-biphenyl]-2-carboxylic Acid]
[1]; [9]
  IC50: 66 nM

## COc1cccc(O[C@@H]2O[C@H](CO)[C@H](O)[C@H](O)[C@H]2NC(C)=O)c1-c1cccc(NS(C)(=O)=O)c1 [Compound 83, N-((2S,3S,4R,5R)-4,5-Dihydroxy-6-(hydroxymethyl)-2-((6-me-thoxy-3 ‘-(methylsulfonamido)-[1,1 ‘-biphenyl]-2-yl)oxy)tetrahydro-2H-pyran-3-yl)acetamide]
[1]; [9]
  IC50: 92 nM

## CC(=O)N[C@H]1[C@H](Oc2cccc(C)c2-c2cccc(NS(C)(=O)=O)c2)O[C@H](CO)[C@H](O)[C@@H]1O [Compound 84, N-((2S,3R/4R/5R,6R)-4/5-Dihydroxy-6-(hydroxymethyl)-2-((6-methyl-3’-(methylsulfonamido)-[1,1’-biphenyl]-2-yl)oxy)-tetrahydro-2H-pyran-3-yl)acetamide]
[1]; [9]
  IC50: 62 nM
[1]; IC50 expressed as a concentration, converted from IC50 of 120 nM
  IC50: 120 nM
[4]
  solubility kinetic: 195 µM (≈ 93.7 µg/mL)

## CC(=O)N[C@H]1[C@H](Oc2ccc3ccccc3c2-c2cccc(NS(C)(=O)=O)c2)O[C@H](CO)[C@H](O)[C@@H]1O [Compound 85, N-((2S,3R,4R,5R,6R)-4,5-Dihydroxy-6-(hydroxymethyl)-2-((1-(3 (methylsulfonamido)phenyl)naphthalen-2-yl)oxy)tetrahydro-2H-pyran-3-yl)acetamide]
[1]; [9]
  IC50: 81 nM

## CC(=O)N[C@H]1[C@H](Oc2cccc(C)c2-c2cccc(NS(=O)(=O)C3CC3)c2)O[C@H](CO)[C@H](O)[C@@H]1O [Compound 86, N-((2S,3R,4R,5R,6R)-2-((3’-(Cyclopropanesulfonamido)-6-meth-yl-[1,1’-biphenyl]-2-yl)oxy)-4,5-dihydroxy-6-(hydroxymethyl)-tetrahydro-2H-pyran-3-yl)acetamide]
[1]; [9]
  IC50: 51 nM
[2]
  renal clearance to the urine: low renal clearance to the urine
[4]
  solubility kinetic: 196 µM (≈ 99.3 µg/mL)

## Cc1cccc(O[C@@H]2O[C@H](CO)[C@H](O)[C@H](O)[C@H]2NS(C)(=O)=O)c1-c1cccc(NS(C)(=O)=O)c1 [Compound 89, N-((2S,3R,4R,5R,6R)-4,5-Dihydroxy-6-(hydroxymethyl)-2-((6-methyl-3’-(methylsulfonamido)-[1,1’-biphenyl]-2-yl)oxy)-tetrahydro-2H-pyran-3-yl)methanesulfonamide]
[1]; [9]
  IC50: 3500 nM

## N-((2S,3S,4R,5R)-4/5-Dihydro xy-6-(hydroxymethyl)-2-((6-methyl-3’-(methylsulfonamido)-[1,1’-biphenyl]-2-yl)oxy)tetrahydro-2H-pyran-3-yl)-2,2,2-trifluoroacetimidic Acid [Compound 88]
[5]
  SIF (% remaining @ 2 h): 89%
[6]
  mouse liver microsomes (t1/2 min): >2.42 h
[7]
  mouse plasma (% remaining @ 2 h): 89%
[8]
  SGF (% remaining @ 6 h): 91%
[1]; ELISA, FmlH binding to desialylated bovine submaxillary mucin, average of four or more replicates
  IC50: 48 nM
[4]; aqueous
  kinetic solubility: 164 µM
